Experimental data as given in patent US8030336B2, “Nicotinamide-based kinase inhibitors” (YM Biosciences Australia Pty Ltd, priority 2002, dated 2011).

Tests used:
Format in all cases: biochemical
hck = hck (Homo sapiens, UniProt P08631); assay: hck kinase assay (ELISA or Alphascreen); settings: read-out: hck inhibition of enzyme activity
Procedure, shortened: (§1)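 PTK domain ~1.5 μg; 50 mM HEPES pH 7.5, 10 mM MgCl2, 150 mM NaCl; ATP 10 μM-1 mM; biotinylated peptide 5 μM final. Read-out: avidin-capture ELISA with PY20 or Alphascreen pTyr acceptor/streptavidin donor beads.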

Zap70 = target: T1, Zap70 (Homo sapiens, UniProt P43403); assay: Zap70 kinase assay (ELISA or Alphascreen); settings: read-out: Zap70 inhibition of enzyme activity
T1 sequence (P43403 338-600 limits assumed): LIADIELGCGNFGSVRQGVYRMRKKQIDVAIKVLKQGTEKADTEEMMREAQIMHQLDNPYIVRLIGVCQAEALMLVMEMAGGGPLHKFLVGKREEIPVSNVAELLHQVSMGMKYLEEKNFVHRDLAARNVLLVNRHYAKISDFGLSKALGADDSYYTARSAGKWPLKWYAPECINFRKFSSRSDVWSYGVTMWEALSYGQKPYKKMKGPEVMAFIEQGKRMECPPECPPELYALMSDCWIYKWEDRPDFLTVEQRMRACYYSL
Procedure, shortened: as §1

fms = target: T2, fms (Homo sapiens, UniProt P07333); assay: fms kinase assay (ELISA or Alphascreen); settings: read-out: fms inhibition of enzyme activity
T2 sequence (P07333 582-910 limits assumed): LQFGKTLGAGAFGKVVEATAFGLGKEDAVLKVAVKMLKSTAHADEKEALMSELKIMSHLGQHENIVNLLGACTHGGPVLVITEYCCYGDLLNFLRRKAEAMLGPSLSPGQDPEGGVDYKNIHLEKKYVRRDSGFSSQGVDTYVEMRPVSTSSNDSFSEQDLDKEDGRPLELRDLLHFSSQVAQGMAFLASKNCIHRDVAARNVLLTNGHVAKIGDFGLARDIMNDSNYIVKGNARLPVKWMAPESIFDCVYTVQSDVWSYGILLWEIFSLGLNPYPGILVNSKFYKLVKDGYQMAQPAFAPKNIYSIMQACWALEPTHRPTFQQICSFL
Procedure, shortened: as §1

fes = fes (Homo sapiens, UniProt P07332); assay: fes kinase assay (ELISA or Alphascreen); settings: read-out: fes inhibition of enzyme activity
Chain of fes (P07332 561-822 limits assumed, species assumed): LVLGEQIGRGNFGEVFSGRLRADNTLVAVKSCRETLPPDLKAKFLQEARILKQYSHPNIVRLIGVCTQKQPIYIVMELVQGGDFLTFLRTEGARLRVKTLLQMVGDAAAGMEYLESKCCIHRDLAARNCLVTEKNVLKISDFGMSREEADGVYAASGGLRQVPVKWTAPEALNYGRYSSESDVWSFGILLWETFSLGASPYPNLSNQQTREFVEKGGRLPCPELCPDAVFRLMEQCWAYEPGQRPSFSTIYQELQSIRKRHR
Procedure, shortened: as §1

abl = target: T3, abl (Homo sapiens, UniProt P00519); assay: abl kinase assay (ELISA or Alphascreen); settings: read-out: abl inhibition of enzyme activity
T3 sequence (P00519 242-493 limits assumed): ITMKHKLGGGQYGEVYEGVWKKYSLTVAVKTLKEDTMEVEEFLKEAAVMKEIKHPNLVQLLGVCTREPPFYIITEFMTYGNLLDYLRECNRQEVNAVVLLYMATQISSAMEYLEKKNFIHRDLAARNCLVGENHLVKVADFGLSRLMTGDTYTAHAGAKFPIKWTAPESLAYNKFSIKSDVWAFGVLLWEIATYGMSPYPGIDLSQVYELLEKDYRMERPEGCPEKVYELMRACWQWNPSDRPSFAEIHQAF
Procedure, shortened: as §1

human JAK3 = target: T4, human JAK3 (Homo sapiens, UniProt P52333); assay: JAK3 kinase assay (ELISA or Alphascreen); settings: read-out: Jak3 inhibition of enzyme activity
T4 construct: The kinase domain of human JAK3 was amplified from U937mRNA; His tag (from the pFastBac HTb vector) (N); made in house; host or cells: baculovirus; Sf9 for virus, High Five insect cells for production
T4 sequence (P52333 822-1111 limits assumed): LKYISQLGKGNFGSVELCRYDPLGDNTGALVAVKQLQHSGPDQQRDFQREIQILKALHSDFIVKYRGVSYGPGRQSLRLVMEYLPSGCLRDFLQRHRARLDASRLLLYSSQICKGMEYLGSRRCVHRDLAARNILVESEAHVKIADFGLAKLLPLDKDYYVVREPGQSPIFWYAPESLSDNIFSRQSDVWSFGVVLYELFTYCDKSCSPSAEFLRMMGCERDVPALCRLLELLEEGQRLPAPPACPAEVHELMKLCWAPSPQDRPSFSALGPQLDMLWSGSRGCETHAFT
Procedure, shortened: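 Read-out: anti-phosphotyrosine detection of a 5 μM biotin-peptide substrate, via PY20-peroxidase ELISA or Alphascreen beads. Enzyme was nickel-purified recombinant JAK3 kinase domain (~1.5 μg), with ATP at 10 μM-1 mM, pH 7.5 HEPES/MgCl2/NaCl.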

human JAK2 = target: T5, human JAK2 (Homo sapiens, UniProt O60674); assay: JAK2 kinase assay (ELISA or Alphascreen); settings: read-out: Jak2 inhibition of enzyme activity
T5 construct: The kinase domain of human JAK2 was amplified from U937mRNA; His tag (from the pFastBac HTc vector) (N); made in house; host or cells: baculovirus; Sf9 for virus, High Five insect cells for production
T5 sequence (O60674 849-1124 limits assumed): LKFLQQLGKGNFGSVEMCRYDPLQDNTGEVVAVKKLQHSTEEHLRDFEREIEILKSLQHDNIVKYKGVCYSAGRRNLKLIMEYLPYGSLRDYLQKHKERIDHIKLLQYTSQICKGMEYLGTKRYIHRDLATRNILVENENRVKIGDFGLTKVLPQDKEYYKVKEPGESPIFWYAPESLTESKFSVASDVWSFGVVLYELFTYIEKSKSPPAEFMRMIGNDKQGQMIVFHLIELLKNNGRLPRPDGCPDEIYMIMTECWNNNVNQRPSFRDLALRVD
Procedure, shortened: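 His-tagged human JAK2 kinase domain from baculovirus-infected insect cells, ~1.5 μg per assay, in 50 mM HEPES pH 7.5, 10 mM MgCl2, 150 mM NaCl, with 10 μM–1 mM ATP and 5 μM biotinylated peptide substrate. Phosphotyrosine detected by PY20 ELISA or AlphaScreen.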

Chain of hck (P08631 262-515 limits assumed, species assumed): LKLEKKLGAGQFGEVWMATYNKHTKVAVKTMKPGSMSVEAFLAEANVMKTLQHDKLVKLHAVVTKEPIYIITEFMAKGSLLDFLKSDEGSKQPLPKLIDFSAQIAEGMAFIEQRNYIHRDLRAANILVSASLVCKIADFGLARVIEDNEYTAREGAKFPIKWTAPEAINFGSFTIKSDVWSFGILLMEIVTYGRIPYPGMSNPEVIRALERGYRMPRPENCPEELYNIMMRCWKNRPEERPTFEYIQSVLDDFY

Row | Compound | inhibition at 10 µM (hck) [%] | inhibition at 10 µM (Zap70) [%] | inhibition at 10 µM (fms) [%] | inhibition at 10 µM (fes) [%] | inhibition at 10 µM (abl) [%] | inhibition at 10 µM (human JAK3) [%] | inhibition at 10 µM (human JAK2) [%]
1 | COc1cc(-c2cncc(C(=O)Nc3ccccc3C)c2)cc(OC)c1OC | ≥ 50 | < 50 | ≥ 50 | < 50 | ≥ 50 | < 50 | < 50
2 | COc1cc(-c2cncc(C(=O)OC(C)(C)C)c2)ccc1O | < 50 | < 50 | ≥ 50 | < 50 | < 50 | < 50 | < 50
3 | COc1ccc(CNC(=O)c2cncc(-c3cc(C)c(O)c(C)c3)c2)cc1 | < 50 | < 50 | < 50 | < 50 | < 50 | < 50 | 
4 | Cc1cc(F)ccc1NC(=O)c1cncc(-c2cc(C)c(O)c(C)c2)c1 | ≥ 50 |  | ≥ 50 | < 50 | ≥ 50 | < 50 | < 50
5 | COc1cc(-c2cncc(C(=O)N[C@H](C)c3ccccc3)c2)c(Cl)c(OC)c1OC | < 50 |  | < 50 | < 50 | < 50 | < 50 | < 50
6 | COc1cc(-c2cncc(C(=O)Nc3cc(C)ccc3C)c2)c(Cl)c(OC)c1OC | ≥ 50 |  | ≥ 50 | < 50 | < 50 | < 50 | < 50
7 | COc1cc(-c2cncc(C(=O)Nc3ccccc3C)c2)c(Cl)c(OC)c1OC | ≥ 50 | < 50 | ≥ 50 | < 50 | < 50 | < 50 | < 50
8 | CC(C)C(CO)NC(=O)c1cncc(-c2ccc3c(c2)OCO3)c1 (stereo not drawn) | < 50 | < 50 | < 50 | < 50 | < 50 | < 50 | 
9 | Cc1ccc(F)cc1NC(=O)c1cncc(-c2ccc3c(c2)OCO3)c1 | < 50 | < 50 | < 50 | < 50 | < 50 | < 50 | < 50
10 | O=C(Nc1ccccc1)c1cncc(-c2cccs2)c1 | < 50 | < 50 | < 50 | ≥ 50 | < 50 | < 50 | < 50
11 | O=C(NCc1cccc(F)c1)c1cncc(-c2cccs2)c1 | < 50 |  | < 50 | ≥ 50 | < 50 | < 50 | < 50
12 | CC(C)NC(=O)c1cncc(-c2cccs2)c1 | < 50 | < 50 | ≥ 50 | ≥ 50 | < 50 | < 50 | < 50
13 | Cc1ccc(CNC(=O)c2cncc(-c3cccs3)c2)cc1 | < 50 | < 50 | < 50 | ≥ 50 | < 50 | < 50 | 
14 | O=C(Nc1ccc(N2CCOCC2)cc1)c1cncc(-c2cccs2)c1 | < 50 | < 50 | < 50 | ≥ 50 | < 50 | < 50 | < 50
15 | Cc1ccc(F)cc1NC(=O)c1cncc(-c2cccs2)c1 | ≥ 50 | < 50 | ≥ 50 | < 50 | < 50 | < 50 | < 50
16 | CN(Cc1ccccc1)C(=O)c1cncc(-c2cccs2)c1 | < 50 | < 50 | < 50 | ≥ 50 | < 50 | < 50 | < 50
17 | CC(CCc1ccccc1)NC(=O)c1cncc(-c2cccs2)c1 (stereo not drawn) | < 50 | < 50 | < 50 | ≥ 50 | < 50 | < 50 | < 50
18 | CC(NC(=O)c1cncc(-c2cccs2)c1)c1ccc(F)cc1 (stereo not drawn) | < 50 | < 50 | < 50 | ≥ 50 | < 50 | < 50 | < 50
19 | C[C@@H](NC(=O)c1cncc(-c2cccnc2)c1)c1ccccc1 | < 50 |  | < 50 | < 50 | < 50 | < 50 | < 50
20 | CC(C)C(CO)NC(=O)c1cncc(-c2cccnc2)c1 (stereo not drawn) | < 50 | < 50 | < 50 | < 50 | < 50 | < 50 | 
21 | O=C(Nc1ccccc1)c1cncc(-c2cccnc2)c1 | < 50 | ≥ 50 | < 50 | < 50 | < 50 | < 50 | < 50
22 | O=C(NCc1ccc(Cl)c(Cl)c1)c1cncc(-c2ccc(F)cc2)c1 | < 50 |  | < 50 | < 50 | < 50 | < 50 | < 50
23 | O=C(Nc1ccccc1)c1cncc(-c2ccc(F)cc2)c1 | < 50 |  | < 50 | < 50 | < 50 | < 50 | < 50
24 | COc1cccc(-c2cncc(C(=O)Nc3ccccc3)c2)c1 | < 50 |  | < 50 | < 50 | < 50 | < 50 | < 50
25 | COc1cccc(-c2cncc(C(=O)Nc3ccc(F)cc3C)c2)c1 | ≥ 50 |  | < 50 | < 50 | < 50 | < 50 | < 50
26 | COc1cccc(-c2cncc(C(=O)Nc3ccc(OC)cc3OC)c2)c1 | < 50 |  | < 50 | < 50 | < 50 | < 50 | < 50
27 | COc1cc(-c2cncc(C(=O)Nc3cc(F)ccc3C)c2)ccc1O | ≥ 50 |  | ≥ 50 | < 50 | ≥ 50 | < 50 | < 50
28 | CC(NC(=O)c1cncc(-c2cccnc2)c1)c1ccc(F)cc1 (stereo not drawn) | < 50 | < 50 | < 50 | < 50 | < 50 | < 50 | 
